Source: patent US9464113B2, “Anti-heparan sulfate peptides that block herpes simplex virus infection in vivo” (The Board of Trustees of the University of Illinois, priority 2010, dated 2016)
No end group written: not given here.

How the values were obtained:
[1] = system: HSV-1 glycoproteins (gB, gD, gH-gL) induced membrane fusion; test: HSV-1 glycoprotein induced cell-to-cell fusion assay, human CF target cells; format: cell-based, herpes simplex virus type-1
Text: CHO-K1 “effector” cells (grown in F-12 Ham, Invitrogen) were co-transfected with plasmids expressing four HSV-1(KOS) glycoproteins: pPEP98 (gB), pPEP99 (gD), pPEP100 (gH), and pPEP101 (gL), along with the plasmid pT7EMCLuc that expresses firefly luciferase gene under transcriptional control of the T7 promoter. Pertel et al., Virology 279:313-324 (2001). Wild-type CHO-K1 cells, which express cell-surface HS but lack functional gD receptors, were transiently transfected with HSV-1 entry receptors. Wild-type CHO-K1 cultured cells expressing HSV-1 entry receptors or naturally susceptible cells (human CF) considered as “target cells” were co-transfected with pCAGT7 that expresses T7 RNA polymerase using chicken actin promoter and CMV enhancer. Tiwari et al., FEBS Letters 581:4468-4472 (2007). Untreated effector cells expressing pT7EMCLuc and HSV-1 essential glycoproteins, and target cells expressing gD receptors transfected with T7 RNA polymerase, were used as positive controls. G2 or control peptide-treated target cells were then co-cultivated (1:1 ratio) for 18 h with effector cells for fusion. Activation of a reporter luciferase gene—as a measure of cell fusion—was examined using reporter lysis assay (Promega) at 24 hr post mixing.
Since G2 was isolated against 3-OS HS, which can mediate viral penetration by promoting membrane fusion (Tiwari et al., J. Gen. Virol. 85:805-809 (2004)), the ability of G2 to block HSV-1 glycoprotein-mediated membrane fusion was tested. Pertel et al., Virology 279:313-324 (2001). The same membrane fusion is used during polykaryocytes formation and cell-to-cell spread. Tiwari et al., FEBS Letters 581:4468-4472 (2007) and Tiwari et al., Biochemical and Biophysical Research Communications 390:382-387 (2009). […]
Control effector cells (T7 polymerase and gD, gH-gL only) (−) were also pre-incubated with G2 for the same duration. […] Membrane fusion as a surrogate for viral spread was detected by monitoring luciferase activity (FIGS. 7A and 7C). Relative luciferase units (RLUs) were determined using a Sirius luminometer (Berthold detection systems). […]

HSV-1(K26GFP) = HSV-1(K26GFP) binding to human CF (microscopy, fluorescence reader, flow cytometry); format: cell-based, herpes simplex virus type-1; details: for virus binding by flow cytometry: 60 min pre-treatment, 4° C. (FIG. 6C)
Description: Flow cytometry was performed to detect the effect of G2 peptide on GFP-HSV-1 binding to human CF. Monolayers of approximately 5×10^6 CF were pre-treated with G2 peptide for 60 min followed by incubation with GFP-expressing HSV-1 (K26GFP) at 4° C. A control peptide treated and untreated cells were similarly incubated with HSV-1 GFP virions. Uninfected CF were used as background negative control. GFP expression from the viral capsid on cell surface was examined by a flowcytometer (MoFlo).
Cultured CF were pre-incubated with 0.5 mM G2 peptide or control-peptide (cp) and then infected with a GFP-tagged HSV-1(K26GFP) virus. Cells were fixed at 60 min post-infection and stained for F-actin and the nucleus (DAPI). GFP-expressing HSV-1(K26GFP) binding to CF in presence and absence of G2 peptides was examined by fluorescence microscopy (FIG. 6A). CF were grown in collagen coated chamber slides and incubated at room temperature for 60 min with G2 (+) or control Cp (G2 (−)) peptide. This was followed by the incubation of the cells in cold with GFP-expressing HSV-1(K26GFP) for 30 min and washing of unbound virioins with PBS. Cells were fixed, stained with phalloidin for F-actin and DAPI for nuclei and examined by a fluorescence microscope (Leica, SP2). The presence of the virus was shown by detecting GFP.
To examine this effect on a population of 10^5 cells, GFP intensity as an indicator of virus binding, was measured after incubation with the virus in cold and rigorous washing of the cells afterwards (FIG. 6B). Relative virus binding to CF was estimated by fluorescence measurements. Cultured CF were pre-incubated with G2 and control peptide (Cp) for 60-min before ice-cold incubation with GFP-expressing HSV-1 virus for 30 min. Cells were washed 3 times and viruses remaining on cell surfaces were assayed for GFP fluorescent intensity using a fluorescence reader (Tecan).
GFP-expressing HSV-1(K26GFP) intensity as a surrogate for virus binding was quantified in presence G2 or control peptide (abbreviated as C) by flow cytometry (FIG. 6C). The cell/virus incubation was performed as described above. G2 peptides block HSV-1 replication into cultured human corneal fibroblasts (CF) (FIG. 6D). Cultured CF were pre-incubated with G2 or mock-treated (Cp) before infection with HSV-1(K26GFP) virus for 6 h. Viral replications in CF were quantified 0-36 h post-infection by measuring GFP fluorescent intensity using a fluorescence reader (Tecan). The data shown are the means of triplicate measures and are representative of three independent experiments. Asterisks indicate significant difference from other treatments (P<0.01, t test), error bars represent standard deviation (SD).
Primary cultures of human CF pretreated with G2 peptide or control peptide (C) were analyzed for HSV-1(K26GFP) binding. […]

Row | Sequence | blocking of membrane fusion (luciferase activity) ([1]; human CF (FIG. 7A)) | syncytia (polykaryocyte) formation, Giemsa staining ([1]; human CF (FIG. 7B)) | virus attachment (fluorescence microscopy) (HSV-1(K26GFP); 0.5 mM, 60 min, virus in cold 30 min (FIG. 6A)) | virus binding by flow cytometry (HSV-1(K26GFP)) | relative virus binding (GFP fluorescent intensity) (HSV-1(K26GFP); fluorescence reader (FIG. 6B)) | blocking of membrane fusion ([1]; statement only, target cells not stated, no data shown)
1 | MPRRRRIRRRQK [G2, MPRRRRIRRRQK] | very effective in blocking membrane fusion | loss of syncytia formation | resisted virus attachment | virus failed to bind | binding was significantly higher in Cp-treated compared to G2 peptide treated cells | 
2 | RVCGSIGKEVLG [Cp, reference compound] |  |  |  | low level inhibitory activity |  | 
3 | LRSRTKIIRIRH [G1, LRSRTKIIRIRH] |  |  |  |  |  | does not appear to block membrane fusion
